Assays:
[1] = tested on: CMV promoter; test: CMV-Renilla luciferase reporter; assay type: cell-based, human; conditions: HepG2, 24 h; fold change relative to DMSO
Description: HepG2 cells (7.5 × 10^5/well) were plated in six-well tissue culture-treated plates. The following day, cells were co-transfected with pGL3-CYP3A4-luc (2 μg/well), pRL-CMV (200 ng/well) and 100 ng/well of either empty vector (pcDNA3), pcDNA3-FLAG-PXR, pCMV6-mPXR or pGL4.53-PGK-PXR using Lipofectamine 3000 (Thermo Fisher Scientific). Twenty-four hours after transfection, cells were trypsinized and suspended in phenol red-free DMEM (Thermo Fisher Scientific) supplemented with 5% charcoal/dextran-treated FBS (HyClone), and 1 × 10^4 cells/well in 25 μl media were added to white 384-well plates. […] After 24 h, the Dual-Glo Luciferase Assay System (Promega) and EnVision microplate reader (PerkinElmer) were used to measure firefly and Renilla luciferase activities. CMV-driven Renilla luciferase was used as an indicator of general transcriptional modulation by the test compounds and is plotted as fold change (FC) relative to DMSO controls. Assays utilizing pGL4.54[luc2/TK], pGL4.53[luc2/PGK], or pGL4.13[luc2/SV40] were similarly performed and normalized.

[2] = target: T1, PXR LBD (Homo sapiens, UniProt O75469); test: Cellular PXR LBD SRC-1 recruitment assay (NanoBiT); assay type: cell-based; conditions: HepG2, NanoBiT, 30 min; 100 nM T0901317 or 5 μM other compound
T1 construct: pcDNA3-SmBiT-PXR LBD (residues 139–434); expressed in transfected cells; host or cells: HepG2
T1 sequence (O75469 139-434): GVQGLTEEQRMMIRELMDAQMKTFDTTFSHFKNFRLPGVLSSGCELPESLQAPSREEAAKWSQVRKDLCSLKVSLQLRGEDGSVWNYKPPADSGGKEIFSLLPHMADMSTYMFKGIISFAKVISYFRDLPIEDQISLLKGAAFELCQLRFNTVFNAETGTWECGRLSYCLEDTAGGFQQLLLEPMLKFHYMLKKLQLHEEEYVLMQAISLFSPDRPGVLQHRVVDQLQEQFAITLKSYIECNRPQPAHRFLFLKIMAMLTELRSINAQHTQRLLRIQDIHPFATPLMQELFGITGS
T1 sequence (Q15788 621-765 partner limits assumed): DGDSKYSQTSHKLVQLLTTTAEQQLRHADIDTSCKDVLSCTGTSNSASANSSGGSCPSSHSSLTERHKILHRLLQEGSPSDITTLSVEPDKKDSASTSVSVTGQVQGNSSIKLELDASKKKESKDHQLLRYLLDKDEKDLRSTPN
Description: Nano Luciferase Binary Technology (NanoBiT) ([33]) was used to assess the interaction of SRC-1 with PXR LBD in HepG2 cells (Supplementary Figure S4). […] The following day, cells were co-transfected with pcDNA3-SmBiT-PXR LBD (100 ng/well) and pcDNA3-LgBiT-SRC-1 (100 ng/well) using Lipofectamine 3000. Empty vector (pcDNA3, 800 ng/well) was used as carrier DNA due to the low amounts of expression plasmids used. […] After 24 h, 5 μl media containing 2.5% DMSO, 5X Nano-Glo Live Cell Substrate from the Nano-Glo Live Cell Assay System (Promega), and 5× concentration of compound was added, resulting in 0.5% DMSO and either 100 nM T0901317 or 5 μM other compound. The plates were incubated for 30 min at RT, and Nano Luciferase activity was then measured with an EnVision microplate reader.

Cc1sc2c(c1C)C(c1ccc(Cl)cc1)=N[C@@H](CC(=O)OC(C)(C)C)c1nnc(C)n1-2 [JQ1, (+)-JQ1]
CMV-Renilla luciferase reporter expression [1]: robustly activated Renilla luciferase expression from a CMV promoter
SRC-1 recruitment to PXR LBD in cells [2]: JQ1 > birabresib > CPI-203
